Experimental data from patent US20260256921A1, “BIFUNCTIONAL MOLECULES TO TARGET DEGRADATION OF TUMOR NECROSIS FACTOR” (Biohaven Therapeutics Ltd., priority 2023, published 2026).
pKd, pKi: −log10 of the molar value.

Tests used:
[1] = biological target: T1, native human ASGPR protein (Homo sapiens, UniProt P07306); assay: Octet (BLI) binding to ASGPR protein; conditions: 1:1 binding model
T1 sequence (P07306 1-291): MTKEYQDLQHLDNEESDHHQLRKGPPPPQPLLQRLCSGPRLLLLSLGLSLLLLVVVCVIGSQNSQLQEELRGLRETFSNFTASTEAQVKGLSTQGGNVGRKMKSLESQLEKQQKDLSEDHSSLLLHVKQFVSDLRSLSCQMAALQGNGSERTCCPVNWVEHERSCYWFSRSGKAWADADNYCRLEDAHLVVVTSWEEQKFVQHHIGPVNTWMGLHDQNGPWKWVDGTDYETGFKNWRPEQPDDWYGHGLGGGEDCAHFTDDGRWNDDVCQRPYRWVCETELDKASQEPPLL
Procedure: Protocol. The binding to native human ASGPR protein was measured by Bio-Layer Interferometry (BLI) using the Sartorius Octet 96e platform (Goettingen, Germany). The binding assay was performed using the Ni-NTA (NTA) Dip and Read Biosensors (Sartorius Catalog #18-5101; Goettingen, Germany) in OptiPlate-96F, Black, 96-well, Pinch bar design, plates (Perkin Elmer Catalog #6005270; Waltham, MA, USA) with the following steps: (1) 60 seconds of baseline in Assay Buffer (PBS (Gibco Catalog #10010; Pottstown, PA, USA)+0.05% Tween 20 (v/v) (Fisher BioReagents Catalog BP337-500; Pittsburgh, PA, USA)+0.1% BSA (w/v) (Rockland Catalog #BSA-50; Pottstown, PA, USA) +1 mM CaCl2; Sigma Catalog #21115; Burlington, MA, USA); (2) 600 seconds of loading with 100 nM ASGPR protein; (3) 60 seconds of baseline; (4) 180 seconds of association with a dilution series of ligand consisting of seven concentrations. The eighth tip in the column was run in Assay Buffer to serve as a reference sensor, the signal of which was subtracted from the sample sensors. (5) 180 seconds of dissociation in Assay Buffer.
Results. Data analysis was done using the Octet Data Analysis HT software (Sartorius, Goettingen, Germany). Processed data was globally fit to a 1:1 binding model for determination of the equilibrium dissociation constant (KD).

[2] = biological target: T2, Recombinant human ASGPR protein (Homo sapiens, UniProt P07306); assay: GalNAc-PAA human ASGPR1 competition binding assay; conditions: competition with GalNAc-PAA-biotin 500 ng/ml
T2 construct: purchased R&D Systems 4394-AS
T2 sequence (P07306 1-291): T1 sequence (P07306 1-291)
Procedure: Protocol. Recombinant human ASGPR protein (R&D Systems Catalog #4394-AS; Minneapolis, MN, USA) was reconstituted to 200 μg/ml in Assay Buffer (20 mM HEPES (TEKnova Catalog #H1030; Hollister, CA, USA), 150 mM NaCl (Promega Catalog #V4221; Madison, WI, USA), 1 mM CaCl2 (Alfa Aesar Catalog #J63122; Tewksbury, MA, USA)). Nunc-Immuno™ MicroWell™ 96 well solid plates (Sigma Catalog #M9410; Burlington, MA, USA) were coated with 300 ng of ASGPR protein per well by diluting the protein to 3 μg/ml in Assay Buffer and adding 100 μl to each well. A few wells were left without ASGPR protein for controls in which 100 μl of Assay Buffer were added. The plate was incubated overnight at 4° C. After overnight incubation, coating solution was discarded and the wells were blocked with 150 μl/well of Blocking Buffer (1% Bovine Serum Albumin (BSA) in Assay Buffer; Sigma Catalog #A3059-100G; Burlington, MA, USA) for 2 hours at 4° C. Frozen stock of GalNAc-PAA-biotin (GlycoNZ Catalog #GNZ-0031-BP, 1 mg/ml in Assay Buffer; Auckland, NZ) was thawed and diluted 1:1000 in Assay Buffer to create a 1000 ng/ml 2× working solution. Competitor compounds were reconstituted to 100 mM in DMSO. If compounds were insoluble at this concentration, they were further diluted in DMSO. Compounds were diluted 1 to 12.5 (10 μl DMSO stock diluted to 125 μl) in Assay Buffer, then 5 fold serially diluted. The DMSO concentration in the 2× working solution of the first well is 8%, for a final starting DMSO concentration of 4%. In a separate deep-well plate (NEST Catalog #503501; Woodbridge, NJ, USA), equal amounts of 1000 ng/ml GalNAc-PAA and serially diluted compounds were combined, for a final concentration of 500 ng/ml GalNAc-PAA and 4 mM compound (top concentration), assuming that the compound concentration of the DMSO stock solution was 100 mM. Plates with Blocking Buffer were removed from refrigerator and blocking solution was discarded. The wells were washed with 200 μl of Assay Buffer three times. After the last wash, plates were tapped dry on paper towels to remove excess liquid.
Next, 100 μl of GalNAc-PAA-biotin premixed with serially diluted compounds was added into each well. For control, several wells containing 500 ng/ml GalNAc-PAA-biotin were included. Plates were incubated for 2 hours at room temperature on an orbital shaker at 100 rpm. After incubation, compound solutions were discarded and each well was washed with 200 μl Assay Buffer three times. Streptavidin-HRP (R&D Systems catalogue #DY998; Minneapolis, MN, USA) was diluted 1:200 in Assay Buffer. 100 μl of the diluted Streptavidin-HRP was added to each well and incubated at room temperature for 45 minutes, protected from light. Streptavidin-HRP was then discarded and each well was washed with 200 μl of Assay Buffer three times. 3,3′,5,5′-Tetramethylbenzidine (TMB) Substrate color reagents A and B (R&D Systems catalog #DY999; Minneapolis, MN, USA) were mixed at a ratio of 1:1 and 100 μl was added to each well. After a 5 minute incubation, 50 μl of Stop Solution (R&D Systems catalog #DY994; Minneapolis, MN, USA) was added to each well. Plates were shaken for 10 seconds using the orbital shaker in the plate reader and read at 450 nm. […] Normalized data were analyzed using a nonlinear-fit of normalized data with a four-parameter sigmoidal dose-response variable slope model.

Compound	pKd [1]	pKi [2]	Octet Kd ASGPR [1]
CCC(=O)N[C@H]1CO[C@H](COCCOCCOCCOCCn2cc(COCCNC(=O)CNC(=O)CCC(=O)N3CCN(Cc4ccc(-c5c[nH]c6ccncc56)c(OCCc5ccc(-c6cccc7ccncc67)cc5)c4)CC3)nn2)[C@H](O)[C@@H]1O [Compound 106]	< 6.00	5.96	
CCC(=O)NC1COC(COCCOCCOCCOCCn2cc(COCC(COCc3cn(CCOCCOCCOCCOCC4OCC(NC(=O)CC)C(O)C4O)nn3)(COCc3cn(CCOCCOCCOCCOCC4OCC(NC(=O)CC)C(O)C4O)nn3)NC(=O)CNC(=O)CCOCCOCCC(=O)N3CCN(Cc4ccc(-c5c[nH]c6ccncc56)c(OCCc5ccc(-c6cccc7ccncc67)cc5)c4)CC3)nn2)C(O)C1O (stereo not shown) [Compound 103]	8.67	6.70	
CCC(=O)NC1COC(COCCOCCOCCOCCn2cc(COCCNC(=O)CNC(=O)CCOCCOCCOCCOCCOCCOCCC(=O)N3CCN(Cc4ccc(-c5c[nH]c6ccncc56)c(OCCc5ccc(-c6cccc7ccncc67)cc5)c4)CC3)nn2)C(O)C1O (stereo not shown) [Compound 105]		6.22	weak
CCC(=O)NC1COC(COCCOCCOCCOCCn2cc(COCC(COCc3cn(CCOCCOCCOCCOCC4OCC(NC(=O)CC)C(O)C4O)nn3)(COCc3cn(CCOCCOCCOCCOCC4OCC(NC(=O)CC)C(O)C4O)nn3)NC(=O)CNC(=O)CCC(=O)N3CCN(Cc4ccc(-c5c[nH]c6ccncc56)c(OCCc5ccc(-c6cccc7ccncc67)cc5)c4)CC3)nn2)C(O)C1O (stereo not shown) [Compound 104]	9.00	6.70	
CCC(=O)N[C@H]1CO[C@H](COCCOCCOCCOCCn2cc(COCCNC(=O)CNC(=O)CCOCCOCCC(=O)N3CCN(Cc4ccc(-c5c[nH]c6ccncc56)c(OCCc5ccc(-c6cccc7ccncc67)cc5)c4)CC3)nn2)[C@H](O)[C@@H]1O [Compound 107]	6.02	6.10	
